Legend:
scPTZ seizures, mice = assay: subcutaneous pentylenetetrazole (scPTZ) seizure test; assay type: in vivo, mouse; conditions: 100 mg/kg i.p., 0.5 h; for protection in the scPTZ seizures: four mice
Experimental: R-enantiomers (R)-31–(R)-33 due to broad and potent activity in both MES and 6 Hz (32 mA) were further evaluated in the scPTZ seizures. […] (i.e., KA-104, Figure 1) to acetyl moiety causes almost complete loss of protection against PTZ seizures.
All substances were suspended in Tween 80 (1% aqueous solution) and administered i.p. as a single injection at a volume of 10 mL/kg. On each day of experimentation, fresh solutions were prepared. The detailed in vivo procedures are described elsewhere: the maximal electroshock seizure test (MES),[83] the subcutaneous pentylenetetrazole seizure test (scPTZ),[84] the 6 Hz psychomotor seizure model (32 mA and 44 mA),[85] and the chimney test.[86] The reference ASMs were purchased from commercial suppliers: VPA (Sigma-Aldrich, St. Louis, MO, USA), LCS and LEV (UCB Pharma, Braine l’Alleud, Belgium).

body temperature, mice = assay: capsaicin-induced hypothermia test / rectal temperature; assay type: in vivo, mouse; conditions: 50 mg/kg i.p.
Experimental: In this study, we used the capsaicin-induced hypothermia model in mice to evaluate the effect of eutomers (R)-31, (R)-32, and (R)-33 on body temperature and to provide more data related to their on-target activity (i.e., antagonism of TRPV1) (Figure S5A–D). Capsaicin given i.p. at a dose of 5 mg/kg produced a marked decrease in rectal temperature at 15 min post injection (p < 0.0001). The temperature returned to normal values within 30–60 min after capsaicin injection. […] None of the tested compounds reversed the capsaicin-induced hypothermia.
The changes in body temperature in the capsaicin-induced hypothermia model were evaluated as described previously. Eutomers (R)-31, (R)-32, and (R)-33 were suspended in a 1% Tween 80 and administered i.p. 15 min before injection of capsaicin (5 mg/kg, i.p.). The corresponding vehicles (1% DMSO or 1% Tween 80) were given to the control animals. Using an electronic thermometer (ThermoWorks, Alpine, Utah, USA), changes in the mouse’s rectal temperature were recorded by inserting the rectal probe approximately 2 cm into the mouse’s rectum. After −15, 0, 15, 30, 60, 90, 120, and 180 min, the measurements were collected. Subsequently, the variations in rectal temperature between the baseline ([…] for the groups receiving compounds and BCTC in conjunction with the vehicle, or […] for the groups receiving the vehicle, compounds, and BCTC in combination with the capsaicin) and the corresponding time point ΔT (°C) were computed and examined.
Figure S5. Acute effects of BCTC (A), (R)-31 (B), (R)-32 (C), and (R)-33 (D) on rectal temperature in the capsaicin-induced test in mice. Capsaicin (CPS) or vehicle (1% DMSO) were injected i.p. at 0 min, as indicated by the arrows.
BCTC, (R)-31, (R)-32, and (R)-33 were suspended in 1% Tween 80 and administered i.p. 15 min before CPS or vehicle injection. The temperature was measured at -15, 0, 15, 30, 60, 90, 120, and 180 min. Since body temperature returned to control values 60 min after CPS injection, subsequent measurements are not shown.
Data are presented as the mean differences (ΔT) in rectal temperature from 0 to -15 min (time point 0 min), from 15 to 0 min (time point 15 min), from 30 to 0 min (time point 30 min), and from 60 to 0 min (time point 60 min); n = 6–8 animals/group. Statistical significance was evaluated using one-way ANOVA with Tukey’s post hoc test: […]
(1 picture or pasted object on this page, not shown here)

Na+ channel (site 2) = Na+ channel (site 2) radioligand binding; conditions: 10 μM, rat cerebral cortex
Experimental: (§1) The current body of literature consistently reports that both sodium (Navx) and Cav1.2 calcium ion channels can be involved in the pathogenesis of epilepsy[67]−[69] and neuropathic pain.[70]−[73] […] Therefore, we performed binding and functional studies toward sodium (site 2) and calcium Cav1.2 channels at concentrations of 10 μM for (R)-31−(R)-33.
(§2) Using previously described testing methodologies, binding/functional tests were conducted on a commercial basis at Eurofins Laboratories (Poitiers, France) and Eurofins Panlabs Discovery Services Taiwan, Ltd. (New Taipei City, Taiwan); see Table S9 for more information.
Table S9. Radioligand binding and functional assays. […]
(§3) Assays were performed commercially in Eurofins Laboratories (Poitiers, France) or Eurofins Panlabs Discovery Services
(§4) Taiwan, Ltd. (New Taipei City, Taiwan).

[1] = target: T1, Cav1.2 (h) calcium ion channel (Homo sapiens, UniProt Q13936); assay: Cav1.2 (h) calcium ion channel cell-based antagonist calcium flux assay; conditions: HEK293, human recombinant HEK-293 cell, read-out: % inhibition of control agonist response
T1 construct: Eurofins
T1 sequence (Q13936 whole entry): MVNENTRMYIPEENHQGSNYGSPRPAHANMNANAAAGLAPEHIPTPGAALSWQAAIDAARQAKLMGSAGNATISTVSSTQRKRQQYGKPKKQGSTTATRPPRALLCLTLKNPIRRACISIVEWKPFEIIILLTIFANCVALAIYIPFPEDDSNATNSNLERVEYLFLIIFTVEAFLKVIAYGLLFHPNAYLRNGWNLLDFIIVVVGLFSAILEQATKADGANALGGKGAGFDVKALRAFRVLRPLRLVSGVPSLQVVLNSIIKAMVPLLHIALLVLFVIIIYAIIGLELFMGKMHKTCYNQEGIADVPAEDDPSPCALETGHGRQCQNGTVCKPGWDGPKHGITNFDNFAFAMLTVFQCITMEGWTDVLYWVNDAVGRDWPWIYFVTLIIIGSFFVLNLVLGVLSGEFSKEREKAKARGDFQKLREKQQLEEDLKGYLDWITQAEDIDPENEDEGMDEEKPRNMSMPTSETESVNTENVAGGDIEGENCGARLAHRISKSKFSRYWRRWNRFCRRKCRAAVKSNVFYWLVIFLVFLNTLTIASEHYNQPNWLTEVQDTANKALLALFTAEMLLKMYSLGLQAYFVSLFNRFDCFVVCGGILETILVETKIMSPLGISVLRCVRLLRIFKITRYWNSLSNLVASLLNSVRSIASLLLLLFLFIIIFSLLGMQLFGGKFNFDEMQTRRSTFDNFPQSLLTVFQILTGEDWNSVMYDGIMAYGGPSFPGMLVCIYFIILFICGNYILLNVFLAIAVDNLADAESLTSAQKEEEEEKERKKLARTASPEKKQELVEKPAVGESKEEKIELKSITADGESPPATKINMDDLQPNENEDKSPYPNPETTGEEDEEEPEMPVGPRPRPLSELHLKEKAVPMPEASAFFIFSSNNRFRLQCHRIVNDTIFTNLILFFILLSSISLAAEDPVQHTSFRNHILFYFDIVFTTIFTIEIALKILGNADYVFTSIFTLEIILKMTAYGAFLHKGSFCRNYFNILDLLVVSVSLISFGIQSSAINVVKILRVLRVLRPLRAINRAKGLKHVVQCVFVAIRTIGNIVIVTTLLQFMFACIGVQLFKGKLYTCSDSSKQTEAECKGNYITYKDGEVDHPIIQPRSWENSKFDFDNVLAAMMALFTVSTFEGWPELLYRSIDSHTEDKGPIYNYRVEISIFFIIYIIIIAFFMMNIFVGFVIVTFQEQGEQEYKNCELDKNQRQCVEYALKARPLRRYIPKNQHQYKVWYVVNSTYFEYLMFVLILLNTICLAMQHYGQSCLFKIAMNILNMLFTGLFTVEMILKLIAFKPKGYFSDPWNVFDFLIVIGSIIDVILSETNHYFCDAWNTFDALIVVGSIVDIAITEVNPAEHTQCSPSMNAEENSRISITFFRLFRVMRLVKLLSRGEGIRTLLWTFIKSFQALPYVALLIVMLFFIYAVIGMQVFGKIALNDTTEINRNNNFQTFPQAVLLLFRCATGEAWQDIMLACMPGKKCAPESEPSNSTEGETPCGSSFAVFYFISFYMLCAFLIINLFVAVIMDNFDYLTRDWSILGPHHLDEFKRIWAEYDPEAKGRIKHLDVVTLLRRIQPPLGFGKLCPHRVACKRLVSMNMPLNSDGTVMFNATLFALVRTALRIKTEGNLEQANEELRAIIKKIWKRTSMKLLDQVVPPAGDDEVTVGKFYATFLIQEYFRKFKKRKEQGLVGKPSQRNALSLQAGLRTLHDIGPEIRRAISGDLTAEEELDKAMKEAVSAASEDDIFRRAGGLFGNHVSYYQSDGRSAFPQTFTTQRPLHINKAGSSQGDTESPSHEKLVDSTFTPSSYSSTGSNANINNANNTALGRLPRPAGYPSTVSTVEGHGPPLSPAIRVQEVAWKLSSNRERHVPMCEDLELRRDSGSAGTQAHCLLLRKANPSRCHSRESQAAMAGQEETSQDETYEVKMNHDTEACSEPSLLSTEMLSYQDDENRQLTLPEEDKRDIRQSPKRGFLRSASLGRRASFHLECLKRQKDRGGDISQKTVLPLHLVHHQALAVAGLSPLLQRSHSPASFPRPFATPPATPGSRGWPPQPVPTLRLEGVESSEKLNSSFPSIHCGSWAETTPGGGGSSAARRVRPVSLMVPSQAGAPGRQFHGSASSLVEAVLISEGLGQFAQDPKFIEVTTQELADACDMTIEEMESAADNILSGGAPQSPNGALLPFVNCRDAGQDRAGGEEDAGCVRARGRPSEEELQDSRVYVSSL
T1 sequence (Q08289 whole entry partner): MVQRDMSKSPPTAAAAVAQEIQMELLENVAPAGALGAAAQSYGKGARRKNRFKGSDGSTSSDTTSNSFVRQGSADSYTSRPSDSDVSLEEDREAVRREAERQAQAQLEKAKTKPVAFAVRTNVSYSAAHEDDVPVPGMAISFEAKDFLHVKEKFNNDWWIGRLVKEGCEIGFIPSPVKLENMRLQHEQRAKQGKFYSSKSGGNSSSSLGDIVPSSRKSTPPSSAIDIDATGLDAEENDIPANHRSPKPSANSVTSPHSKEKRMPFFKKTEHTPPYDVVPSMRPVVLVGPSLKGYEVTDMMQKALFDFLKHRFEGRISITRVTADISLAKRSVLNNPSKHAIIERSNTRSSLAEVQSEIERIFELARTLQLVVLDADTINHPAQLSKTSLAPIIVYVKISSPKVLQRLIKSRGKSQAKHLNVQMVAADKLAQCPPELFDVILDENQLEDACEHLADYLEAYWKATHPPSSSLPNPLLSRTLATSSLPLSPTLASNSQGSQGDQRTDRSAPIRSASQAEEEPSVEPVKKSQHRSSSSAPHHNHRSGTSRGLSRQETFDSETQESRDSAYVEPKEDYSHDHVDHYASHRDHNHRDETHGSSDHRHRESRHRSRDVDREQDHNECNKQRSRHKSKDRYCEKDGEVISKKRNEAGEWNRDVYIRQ
T1 sequence (P54289 25-946 partner limits assumed): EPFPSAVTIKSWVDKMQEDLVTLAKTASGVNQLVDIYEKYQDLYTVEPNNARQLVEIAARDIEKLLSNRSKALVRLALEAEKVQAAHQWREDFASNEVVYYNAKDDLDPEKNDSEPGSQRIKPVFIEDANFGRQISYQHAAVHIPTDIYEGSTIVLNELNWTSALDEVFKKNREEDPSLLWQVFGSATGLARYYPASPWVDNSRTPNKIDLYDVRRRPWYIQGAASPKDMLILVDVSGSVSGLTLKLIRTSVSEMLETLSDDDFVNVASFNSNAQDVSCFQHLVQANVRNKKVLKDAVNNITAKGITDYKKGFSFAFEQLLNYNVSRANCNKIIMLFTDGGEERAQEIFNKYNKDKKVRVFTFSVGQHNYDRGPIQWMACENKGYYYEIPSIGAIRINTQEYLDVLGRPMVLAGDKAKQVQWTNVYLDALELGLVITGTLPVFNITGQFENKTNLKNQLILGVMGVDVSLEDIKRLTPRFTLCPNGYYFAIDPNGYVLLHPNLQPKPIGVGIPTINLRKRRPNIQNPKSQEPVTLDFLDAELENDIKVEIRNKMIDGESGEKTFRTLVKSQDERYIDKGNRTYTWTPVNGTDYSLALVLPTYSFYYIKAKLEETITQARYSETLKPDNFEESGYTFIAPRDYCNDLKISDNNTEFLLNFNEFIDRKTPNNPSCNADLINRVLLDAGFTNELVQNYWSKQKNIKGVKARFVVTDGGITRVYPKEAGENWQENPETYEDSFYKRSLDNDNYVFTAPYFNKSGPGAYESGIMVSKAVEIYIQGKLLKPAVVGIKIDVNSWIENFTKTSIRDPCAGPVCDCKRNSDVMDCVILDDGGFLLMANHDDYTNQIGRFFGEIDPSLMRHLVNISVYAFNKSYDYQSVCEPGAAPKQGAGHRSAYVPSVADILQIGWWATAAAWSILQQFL
T1 sequence (P54289 947-1103 partner limits assumed): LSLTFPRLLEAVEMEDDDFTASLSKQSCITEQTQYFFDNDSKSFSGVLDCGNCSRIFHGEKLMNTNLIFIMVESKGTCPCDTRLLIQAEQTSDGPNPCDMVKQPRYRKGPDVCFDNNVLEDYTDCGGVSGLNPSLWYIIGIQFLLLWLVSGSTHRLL
Experimental: as §1, §2
Table S9. Radioligand binding and functional assays.
Cav1.2 (L-type) (h) calcium ion channel cell-based antagonist calcium flux assay […]
as §3, §4

[2] = system: STZ-induced tactile allodynia, mice; assay: streptozotocin (STZ)-induced peripheral neuropathy, von Frey test; assay type: in vivo, mouse; conditions: 21 days after STZ
Excerpt: To test whether the compounds are active in the neuropathic pain resulting from another mechanism of neuronal injury, we tested them in streptozotocin (STZ)-induced neuropathy. STZ is the commonly used experimental model to induce diabetic neuropathy. Streptozotocin is toxic to insulin-producing beta cells in the pancreas and selectively damages these cells, leading to insulin deficiency, which subsequently results in chronic hyperglycemia. Hyperglycemia is a major factor in the development of diabetic neuropathy. Elevated blood glucose levels increase its uptake by nerve cells, which results in metabolic and oxidative stress. Moreover, hyperglycemia leads to the formation of advanced glycation end products (AGEs), which are abnormal protein structures. AGEs can accumulate in neuronal tissue and contribute to nerve dysfunction.[63] […] Additionally, STZ-induced neuropathic pain may also involve alterations in the levels of neurotransmitters such as glutamate and GABA.[64],[65]
Each animal was tested only once. […] Behavioral measurements were observed by trained observers.

SMILES	protection in the scPTZ seizures (scPTZ seizures, mice)	scPTZ: number of mice protected/number of mice tested (scPTZ seizures, mice)	effect on body (rectal) temperature, administered alone (body temperature, mice)	% inhibition of control specific binding (Na+ channel (site 2))	inhibition at 10 µM [1] [%]	pain threshold in STZ-induced neuropathy, % of the baseline ([2]; 25 mg/kg i.p.)	pain threshold in STZ-induced neuropathy, % of the baseline ([2]; 50 mg/kg i.p.) [%]	pain threshold in STZ-induced neuropathy, % of the baseline ([2]; 100 mg/kg i.p.) [%]
CC(=O)N[C@@H](C(=O)N1CCN(c2cccc(SC(F)(F)F)c2)CC1)c1ccccc1 [(R)-33, (R)-N-(2-Oxo-1-phenyl-2-(4-(3-((trifluoromethyl)thio)phenyl)piperazin-1-yl)ethyl)acetamide]	ineffective	0/4	caused a significant drop in rectal temperature	63.2 (10) %	49	–	–	–
CC(=O)N[C@@H](C(=O)N1CCN(c2cccc(OC(F)(F)F)c2)CC1)c1ccccc1 [(R)-32, (R)-N-(2-Oxo-1-phenyl-2-(4-(3-(trifluoromethoxy)phenyl)piperazin-1-yl)ethyl)acetamide]	ineffective	0/4	did not significantly affect body temperature	40.7 (10) %	31	113%	120	134
CC(=O)N[C@@H](C(=O)N1CCN(c2cccc(C(F)(F)F)c2)CC1)c1ccccc1 [(R)-31, (R)-N-(2-Oxo-1-phenyl-2-(4-(3-(trifluoromethyl)phenyl)piperazin-1-yl)ethyl)acetamide]	25%	1/4	did not significantly affect body temperature	33.9 (10) %	75	did not observe any significant effects	123	178

From publication PMC11378297, “Discovery and Profiling of New Multimodal Phenylglycinamide Derivatives as Potent Antiseizure and Antinociceptive Drug Candidates” (ACS Chemical Neuroscience, 2024)
